From US20220160820A1, “MODULATORS OF COMPLEMENT ACTIVITY” (Ra Pharmaceuticals, Inc., priority 2019, published 2022)

Assays:
[1] = In vivo drug-drug interaction study with anti-FcRn monoclonal antibody DX-2507; details: concomitant dosing of anti-FcRn monoclonal antibody DX-2507; Cynomolgus monkeys
Text: (§1) By inhibiting FcRN, DX-2504 inhibits Fc-mediated recycling, thereby reducing the half-life of IgG antibodies. Administration of DX-2504 serves as a model for intravenous immunoglobulin (IVIG) treatment, which reduces the half-life of IgG antibodies by overwhelming the Fc recycling mechanism with large doses of immunoglobulin.

[2] = Quantitative whole body analysis (QWBA) of radiolabeled zilucoplan; type: in vivo; details: rats, 24 hours
Description: In some embodiments, compound permeability may be determined using quantitative whole body analysis (QWBA). QWBA is a form of analysis that uses radiography to assess distribution of radiolabeled analytes. In some embodiments, radiolabeled compounds are administered to subjects and tissue distribution of the compounds is analyzed over time.
Enhanced permeability of zilucoplan was confirmed by quantitative whole body analysis (QWBA). […] Area under the concentration curve (AUC) for each organ or tissue analyzed was expressed as a percentage of plasma AUC to yield a biodistribution value, presented in Table 2 below. […] 5:297-305, are provided for comparison.

[3] = system: Co-cultures of human myotubes and neuroblastoma cells; assay: In vitro NMJ model: autoantibody-induced C5b-9 deposition by immunofluorescence; type: cell-based; details: 10 μM zilucoplan; anti-AChR 637 IgG1; human sera; anti-C5b-9 immunofluorescence
Description: Co-cultures of human myotubes and neuroblastoma cells were prepared and cultured with human sera as an in vitro NMJ model. […] Subsequent deposition of C5b-9 was observed by immunofluorescence using an anti-C5b-9 antibody (aE11, AbCam. Cambridge. UK).

[4] = Zilucoplan levels in a patient receiving concomitant IVIG; type: in vivo, human; details: patient receiving concomitant therapeutic doses of IVIG
Text: as §1

[5] = biological target: surface-bound C5b-9 or soluble membrane attack complex (sC5b-9) (Homo sapiens, UniProt P01031); assay: Binding to C5b-9 / soluble membrane attack complex
[6] = system: human C5 polymorphisms (including p.R885>H/C); assay: Binding and inhibitory activities in presence of C5 polymorphisms; details: presence of clinically-relevant human C5 polymorphisms (including p.R885>H/C)
[7] = In vivo drug-drug interaction study with cyclosporine A; details: following cyclosporine A administration; NHPs
[8] = In-vitro permeability, basement membrane model; type: in vitro ADME
Text: In some embodiments, the present disclosure provides methods of inhibiting C5 activity in a tissue by contacting the tissue with a tissue-penetrating C5 inhibitor. As used herein, the term “tissue-penetrating” refers to a property characterized by tissue permeability. […] Tissue penetration may be assessed by ability to cross basement membranes. As used herein, the term “basement membrane” refers to an extracellular matrix (ECM) protein layer separating endothelial cells from underlying tissues. Tissue penetration assessments may be done in vivo or in vitro and may include the use of basement membrane models. Such models may include measuring compound diffusion across artificial basement membranes. Such models may include the use of upper and lower reservoirs separated by an artificial basement membrane. Artificial basement membranes may include any of the ECM gel membranes described in Arends, F. et al. 2016. IntechOpen, DOI: 10.5772/62519, the contents of which are herein incorporated by reference in their entirety. ECM gel membranes may be prepared to include matrix components mimicking those found in the basal lamina of neuromuscular junctions.
The ECM gel membrane was prepared to include matrix components mimicking those found in the basal lamina of neuromuscular junctions.

With `CCCCCCCCCCCCCCCC(=O)N[C@@H](CCC(=O)NCCOCCOCCOCCOCCOCCOCCOCCOCCOCCOCCOCCOCCOCCOCCOCCOCCOCCOCCOCCOCCOCCOCCOCCOCCCCC(=O)NCCCC[C@H](NC(=O)[C@@H](NC(=O)[C@@H]1CCCN1C(=O)[C@H](Cc1ccc(O)cc1)NC(=O)[C@H](CCC(=O)[O-])NC(=O)[C@H](Cc1c[nH]c2ncccc12)NC(=O)[C@H](Cc1ccc(O)cc1)NC(=O)[C@@H](NC(=O)[C@H](CC(=O)[O-])N(C)C(=O)[C@@H]1CC(=O)NCCCC[C@H](NC(C)=O)C(=O)N[C@@H](C(C)C)C(=O)N[C@@H](CCC(=O)O)C(=O)N[C@@H](CCCNC(=N)N)C(=O)N[C@@H](Cc2ccccc2)C(=O)N1)C(C)(C)C)C1CCCCC1)C(=O)[O-])C(=O)[O-].[Na+].[Na+].[Na+].[Na+]` [zilucoplan] the Zilucoplan pharmacodynamics [1] was “did not change”, the Zilucoplan pharmacokinetics [1] was “did not change” and the “Zilucoplan biodistribution % (tissue AUC as percentage of plasma AUC)” value ([2]; Bone) was 15.3%. For the same molecule, the “Zilucoplan biodistribution % (tissue AUC as percentage of plasma AUC)” value ([2]; Brain) was 0.9%, the “Zilucoplan biodistribution % (tissue AUC as percentage of plasma AUC)” value ([2]; Fat) was 16.2% and the “Zilucoplan biodistribution % (tissue AUC as percentage of plasma AUC)” value ([2]; Heart) was 22.9%. For the same molecule, the “Zilucoplan biodistribution % (tissue AUC as percentage of plasma AUC)” value ([2]; Large Intestine) was 21.7%, the “Zilucoplan biodistribution % (tissue AUC as percentage of plasma AUC)” value ([2]; Liver) was 27.1% and the “Zilucoplan biodistribution % (tissue AUC as percentage of plasma AUC)” value ([2]; Lung) was 37.5%. For the same molecule, the “Zilucoplan biodistribution % (tissue AUC as percentage of plasma AUC)” value ([2]; Lymph nodes) was 12.8%, the “Zilucoplan biodistribution % (tissue AUC as percentage of plasma AUC)” value ([2]; Muscle) was 7.0% and the “Zilucoplan biodistribution % (tissue AUC as percentage of plasma AUC)” value ([2]; Pancreas) was 15.8%. The “Zilucoplan biodistribution % (tissue AUC as percentage of plasma AUC)” value ([2]; Small Intestine) was 10.9%, the “Zilucoplan biodistribution % (tissue AUC as percentage of plasma AUC)” value ([2]; Spleen) was 15.5% and the “Zilucoplan biodistribution % (tissue AUC as percentage of plasma AUC)” value ([2]; Stomach) was 8.5%. The “Zilucoplan biodistribution % (tissue AUC as percentage of plasma AUC)” value ([2]; Testes) was 15.5%, the “Zilucoplan biodistribution % (tissue AUC as percentage of plasma AUC)” value ([2]; Thymus) was 7.8% and the C5b-9 deposition [3] was “absent”. For the same molecule, the “changes in zilucoplan levels” value [4] was “no changes”, the “binding to surface-bound C5b-9 or sC5b-9” value [5] was “does not bind” and the “binding and inhibitory activities” value [6] was “not affected”. For the same molecule, the “effects on zilucoplan exposure” value [7] was “No effects”, the “fraction introduced to upper reservoir diffused to lower reservoir” value ([8]; 24 hours) was “more than 60%” and the “fraction introduced to upper reservoir diffused to lower reservoir” value ([8]; after 12 hours) was “Greater than 20%”.
